Reference: publication PMC2727956, “Production of the Novel Two-Peptide Lantibiotic Lichenicidin by Bacillus licheniformis DSM 13” (PLoS ONE, 2009)
Where no end group is shown, it is not given here.

Assays:
[1] = system: S. aureus LT440/09 (cMRSA); test: Minimum inhibitory concentrations on agar plates (spotted serial dilutions); type: cell-based, Staphylococcus aureus; conditions: S. aureus LT440/09 (cMRSA) versus S. aureus SG511 (MSSA); serial dilutions in half-concentrated Müller-Hinton broth, 10 µl spotted on Müller Hinton agar lawn, overnight; lichenicidin as isopropanol wash extract
Protocol: (§1) For the comparison of the antibacterial efficacy of lichenicidin to other lantibiotics, Pep5 [52] and nisin [53] were purified as described previously, and mersacidin was obtained from Sanofi-Aventis (Frankfurt, Germany). Serial dilutions of the lantibiotics and the isopropanol wash extract were prepared in half-concentrated Müller-Hinton broth. Fresh colonies of all indicator organisms were used to prepare cell suspensions of about 5×10^6 colony forming units per ml which were employed to inoculate Müller Hinton agar plates. Ten µl of the lantibiotic solutions were spotted onto the indicator plates. The highest dilution yielding a clear inhibition zone on the lawn was detected by visual inspection after incubation overnight.

[2] = system: S. aureus ATCC 33592 (MRSA); test: as above; type: cell-based, Staphylococcus aureus; conditions: S. aureus ATCC 33592 (MRSA) versus S. aureus SG511 (MSSA); serial dilutions in half-concentrated Müller-Hinton broth, 10 µl spotted on Müller Hinton agar lawn, overnight; lichenicidin as isopropanol wash extract
Protocol: as §1

In the case of “mersacidin: lantibiotic obtained from Sanofi-Aventis (CTFTLPGGGGVCTLTSECIC; also: lantibiotic: thioether bridges, places not given here; UniProt P43683 49-68, looked up)”, the “minimum inhibitory concentration on agar plates, fold higher than against S. aureus SG511” value [1] is reported as 4.7±1.6 fold and the “minimum inhibitory concentration on agar plates, fold higher than against S. aureus SG511” value [2] is reported as 4.8±1.6 fold.
nisin was tested, and the “minimum inhibitory concentration on agar plates, fold higher than against S. aureus SG511” value [1] was 2.67±1.03 fold and the “minimum inhibitory concentration on agar plates, fold higher than against S. aureus SG511” value [2] was 1.83±0.41 fold.
